Data on one compound can be found in patent publication US12186318B2, “Pharmaceutical composition for preventing or treating cancer comprising KSP inhibitor and mitosis inhibitor” (KOREA INSTITUTE OF SCIENCE AND TECHNOLOGY, priority 2020, dated 2025).

In one assay the test system is Kif15 gene. In words: Kif15 expression at the gene level (qRT-PCR) in HeyA8-MDR cells. Type of assay: cell-based. The conditions noted are these: 50 nM siKSP and/or 2000 nM PTX, 48 hours. As to the method:
Subsequently, total RNA was obtained respectively from the recovered cells using an RNeasy mini kit (Qiagen, US), cDNA was synthesized from the obtained total RNA using a TOPscript cDNA synthesis kit (Enzynomics, Korea), and PCR was performed using a StepOne qRT-PCR system (Thermo Fisher scientific) and primers specific to a Kif15 gene (SEQ ID NOS: 7 and 8) or primers specific to a β-actin gene (SEQ ID NOS: 5 and 6).
Thereafter, the levels of the amplified products obtained from the PCR were measured, and the measured levels were standardized with respect to an expression amount of β-actin, and then relative levels of Kif15 mRNA was calculated (FIG. 2C).

The next assay has as its system Kif15 protein. In words: Kif15 expression at the protein level (western blot) in HeyA8-MDR cells. Format: cell-based. The conditions noted are these: 50 nM siKSP and/or 2000 nM PTX, 48 hours. How it is done: The cells recovered in Example 3-3 above were analyzed by western blotting using an anti-Kif15 antibody (FIG. 2D).
For the next assay, the system named is HeyA8-MDR cells. In words: Anti-cancer activity, MTT cell viability and Bliss independence. Format: cell-based. The conditions noted are these: single agent, 0 to 200 nM liposome or 0 to 2000 nM paclitaxel, 48 hours.
Assay [1] concerns HeyA8-MDR cancer cells. Put plainly: Anti-cancer effect in tumor mouse model. Particulars: 26 days after injection. Type of assay: in vivo, BALB/c nude mouse. As to the method:
First, HeyA8-MDR cancer cells (1×10^8) were injected into the left thigh of a 5-week-old female BALB/c nude mouse, and then left until cancer tissue grew to a volume of about 50 mm3 to prepare 20 tumor mouse xenograft models.
Subsequently, at 26 days after injection of each of the samples, tumor tissue was excised from each tumor mouse model and weighed (FIG. 4B).
In addition, at 26 days after injection of each of the samples, tumor tissue was excised from each tumor mouse model, and tumor growth inhibition (TGI) rate was measured (FIG. 4C).

Assay [2] deals with HeyA8-MDR cancer cells. Put plainly: TUNEL assay on tumor tissue of tumor mouse model. Format: in vivo, BALB/c nude mouse. The source says: The tumor tissue of the respective groups excised in Example 4-2 above was subjected to a TUNEL assay to identify the level of apoptosis in the tumor tissue (FIG. 4I).
The test system of the next assay is Kif15 mRNA. Put plainly: Kif15 mRNA level in drug-resistant PDX model. Type of assay: in vivo, mouse. Particulars: relative to control. How it is done:
The levels of Kif15 mRNA expressed in tumor tissue of the respective groups excised in Example 4-4-2 above were measured by qRT-PCR as an application method of that of Example 3-3 (FIG. 5E).

For another assay, the system named is drug-resistant PDX model. In words: TUNEL assay on tumor-implanted kidney tissue of drug-resistant PDX model. Type of assay: in vivo, mouse. The source says:
The tumor-implanted kidney tissue of the respective groups excised in Example 4-4-2 above was subjected to a TUNEL assay to identify the level of apoptosis in the tumor-implanted kidney tissue (FIG. 5H).

Each structure is given as a SMILES string.

With `CC(=O)O[C@H]1C(=O)[C@@]2(C)[C@H]([C@H](OC(=O)c3ccccc3)[C@]3(O)C[C@H](OC(=O)[C@H](O)[C@@H](NC(=O)c4ccccc4)c4ccccc4)C(C)=C1C3(C)C)[C@]1(OC(C)=O)CO[C@@H]1C[C@@H]2O` [paclitaxel], the “expression level of the Kif15 gene” value in the assay with Kif15 gene is reported as “inhibited”. The “level of the Kif15 protein” value in the assay on Kif15 protein is given as “decreased”. The “cell viability with increasing concentration” value with HeyA8-MDR cells is “decreases”. Further, the “tumor growth inhibition (TGI) rate” value with HeyA8-MDR cancer cells [1] is on record as “about 13.1%”. Moreover, the “apoptosis in tumor tissue (TUNEL)” value in the assay with HeyA8-MDR cancer cells [2] is recorded as “not induced or induced in a low level”. The “Kif15 mRNA level in tumor-implanted kidney tissue” value with Kif15 mRNA is “decreased”. For the same compound, in the assay on drug-resistant PDX model, the “apoptosis in tumor-implanted kidney tissue (TUNEL)” value is on record as “not induced or induced in a low level”.
